Test results reported in patent US6794396B2, “Substituted pyridines useful for inhibiting cholesteryl ester transfer protein activity” (Pharmacia Corporation, priority 1998, dated 2004).

What follows are compounds tested against T1, CETP (Homo sapiens, UniProt P11597) (assay: CETP activity in vitro: transfer of [3H]CE from HDL donor to LDL acceptor particles). Settings: 50% inhibition of [3H]CE transfer from HDL to LDL, 2 hours at 37° C.; read-out: IC50(μm).
T1 construct: made in house; host or cells: CHO cells (serum-free conditioned medium)
T1 sequence (P11597 18-493): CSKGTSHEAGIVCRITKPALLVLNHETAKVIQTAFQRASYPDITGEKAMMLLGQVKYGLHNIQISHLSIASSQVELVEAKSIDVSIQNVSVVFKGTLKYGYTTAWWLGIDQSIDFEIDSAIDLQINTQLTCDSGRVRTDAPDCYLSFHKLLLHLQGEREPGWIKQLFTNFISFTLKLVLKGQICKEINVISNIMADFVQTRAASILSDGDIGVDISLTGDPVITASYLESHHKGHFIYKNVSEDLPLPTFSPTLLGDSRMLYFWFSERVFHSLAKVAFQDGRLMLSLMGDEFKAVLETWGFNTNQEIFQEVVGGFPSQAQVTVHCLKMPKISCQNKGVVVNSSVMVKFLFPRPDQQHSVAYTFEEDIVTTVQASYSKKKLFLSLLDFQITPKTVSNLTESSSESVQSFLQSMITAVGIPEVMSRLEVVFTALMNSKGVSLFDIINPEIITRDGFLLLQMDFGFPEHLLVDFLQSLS
Format: biochemical
Experimental: The ability of compounds to inhibit CETP were assessed using an in vitro assay that measured the rate of transfer of radiolabeled cholesteryl ester ([^3H]CE) from HDL donor particles to LDL acceptor particles. Details of the assay are provided by Glenn et al. (“Quantification of Cholesteryl Ester Transfer Protein (CETP): A) CETP Activity and B) Immunochemical Assay of CETP Protein,” Meth. Enzymol., Glenn and Melton (Meth. Enzymol., 263, 339-351 (1996), which is incorporated herein by reference). CETP was obtained from the serum-free conditioned medium of CHO cells transfected with a cDNA for CETP (Wang, S. et al. J. Biol Chem. 267, 17487-17490 (1992), which is incorporated herein by reference).
To measure CETP activity, [^3H]CE-labeled HDL, LDL, CETP and assay buffer (50 mM tris(hydroxymethyl)amino-methane, pH 7.4; 150 mM sodium chloride; 2 mM ethylenediamine-tetraacetic acid; 1% bovine serum albumin) were incubated in a volume of 200 μl, for 2 hours at 37° C. in 96 well plates. LDL was differentially precipitated by the addition of 50 μl of 1% (w/v) dextran sulfate/0.5 M magnesium chloride, mixed by vortex, and incubated at room temperature for 10 minutes The solution (200μl) was transferred to a filter plate (Millipore). After filtration, the radioactivity present in the precipitated LDL was measured by liquid scintillation counting.
This value was defined as the IC50.

| Compound | IC50 [µM] |
| --- | --- |
| COC(=O)c1c(C(F)F)nc(C(F)(F)F)c(CSc2ccc(C(C)(C)C)cc2)c1CC(C)C [Compound 3, Methyl 5-(4-t-Butylphenylthiomethyl)-2-(difluoromethyl)-4-(2-methylpropyl)-6-(trifluoromethyl)-3-pyridinecarboxylate] | 9 |
| CCOC(=O)c1c(C(F)(F)F)nc(C(F)(F)F)c(C)c1Sc1ccc(C(C)C)cc1 [Compound 11, Ethyl 2,6-Bis(trifluoromethyl)-4-[4-(isopropylphenyl)thio]-5-methyl-3-pyridinecarboxylate] | 25 |
| COC(=O)c1c(C(F)F)nc(C(F)(F)F)c(C(O)c2ccco2)c1CC(C)C (stereo not drawn) [Compound 13, Methyl 2-(difluoromethyl)-5-(1-hydroxyl-furylmethyl)-4-(2-methylpropyl)-6-(trifluoromethyl)-3-pyridinecarboxylate] | 30 |
| COC(=O)c1c(C(F)F)nc(C(F)(F)F)c(N=C=S)c1CC(C)C [Compound 18] | 35 |
| CCOC(=O)c1c(C(F)F)nc(C(F)(F)F)c(C(=O)OCC)c1SC1CCCC1 [Compound 22, Diethyl 2-(Difluoromethyl)-4-(cyclopentylthio)-6-(trifluoromethyl)-3,5-pyridinedicarboxylate] | 40 |
| CCOC(=O)c1c(Sc2ccccc2)cc(C(F)(F)F)nc1C(F)(F)F [Compound 23] | 40 |
| COC(=O)c1c(C(F)F)nc(C(F)(F)F)c(N=C(OC)SC)c1CC(C)C [Compound 27, Methyl 2-(Difluoromethyl)-5-{[methoxy (methylthio)methylene]amino)-4-(2-methylpropyl)-6-(trifluoromethyl)-3-pyridinecarboxylate] | 40 |
| COC(=O)c1c(C(F)F)nc(C(F)(F)F)c(CI)c1CC(C)C [Compound 32, Methyl 2-(Difluoromethyl)-5-(iodomethyl)-4-(2-methylpropyl)-6-(trifluoromethyl)-3-pyridinecarboxylate] | 45 |
| COC(=O)c1c(C(F)F)nc(C(F)(F)F)c(C(OC)c2ccns2)c1CC(C)C (stereo not drawn) [Compound 34, Methyl 2-(Difluoromethyl)-5-[(methoxy)isothiazol-5-ylmethyl]-4-(2-methylpropyl)-6-(trifluoromethyl)-3-pyridinecarboxylate] | 45 |
| COC(=O)c1c(OCc2ccccc2)cc(C(F)(F)F)nc1C(F)(F)F [Compound 37, Methyl 2,6-bis(Trifluoromethyl)-4-(benzyloxy)-3-pyridinecarboxylate] | 45 |
| COC(=O)c1c(C(F)F)nc(C(F)(F)F)c(COC(=O)c2ccccc2)c1CC1CC1 [Compound 41, Methyl 5-(Benzoyloxymethyl)-2-(difluoromethyl)4-(cyclopropylmethyl)-6-(trifluoromethyl)-3-pyridinecarboxylate] | 50 |
| COC(=O)c1cc(CSC(=S)N(C)C)c(C(F)(F)F)nc1C(F)F [Compound 43, Methyl 2-(Difluoromethyl)-5-[(dimethylaminothionothio)methyl]-6-(trifluoromethyl)-3-pyridinecarboxylate] | 50 |
| CCOC(=O)c1c(C(F)(F)F)nc(C(F)F)c(NC(=O)Nc2c(C(F)F)nc(C(F)(F)F)c(C(=O)OCC)c2CC)c1CC [Compound 48] | 50 |
| CCOC(=O)c1c(C(F)(F)F)nc(C(F)(F)F)c(C(=O)OC)c1OCC [Compound 52] | 50 |
| CCOC(=O)c1c(C(F)(F)F)nc(C(F)(F)F)c(C)c1OC(C)C [Compound 53, Ethyl 2,6-Bis(trifluoromethyl)-4-(isopropoxy)-5-methyl-3-pyridinecarboxylate] | 50 |
| COC(=O)c1c(C(F)(F)F)ncc(C(=O)c2cnc(C(F)(F)F)c(C(=O)OC)c2OC(C)C)c1OC(C)C [Compound 54] | 50 |

Same assay, conditions: IC50(μm), 50% inhibition of [3H]CE transfer from HDL to LDL, 2 hours at 37° C.

| Compound | IC50 [µM] |
| --- | --- |
| COC(=O)c1c(C(F)F)nc(C(F)(F)F)c(N=S=O)c1CC(C)C [Compound 1] | 2 |
| CCOC(=O)c1c(C(F)(F)F)nc(C(F)F)c(C(=O)OC)c1S [Compound 2, 3-Methyl 5-Ethyl 2-(Difluoromethyl)-4-mercapto-6-(trifluoromethyl)-3,5-pyridinedicarboxylate] | 3 |
| CCCCCCCCCCCCCCCC(=O)Sc1c(C(F)(F)F)nc(C(F)F)c(C(=O)OC)c1CC(C)C [Compound 5, Methyl 2-(Difluoromethyl)-4-(2-methylpropyl)-5-(palmitoylthio)-6-(trifluoromethyl)-3-pyridinecarboxylate] | 8 |
| COC(=O)Sc1c(C(F)(F)F)nc(C(F)F)c(C(=O)OC)c1CC(C)C [Compound 6, Methyl 2-(Difluoromethyl)-4-(2-methylpropyl)-5-[(methoxycarbonyl)thio]-6-(trifluoromethyl)-3-pyridinecarboxylate] | 8 |
| CC(C)Cc1c(C(=O)OC(C)(C)C)c(C(F)F)nc(C(F)(F)F)c1C(=O)OC(C)(C)C [Compound 9, Di-t-Butyl 2-(difluoromethyl)-4-(2-methylpropyl)-6-(trifluoromethyl)-3,5-pyridinedicarboxylate] | 20 |
| COC(=O)c1c(C(F)(F)F)nc(C(F)(F)F)c(C2=NCCS2)c1CC(C)C [Compound 12, Methyl 2,6-Bis(trifluoromethyl)-5-(4,5-dihydro-2-thiazoly)-4-(2-methylpropyl)-3-pyridinecarboxylate] | 25 |
| COC(=O)c1c(C(F)F)nc(C(F)(F)F)c(C(=O)SC(C)C)c1C1CCC1 [Compound 14, Methyl 2-(Difluoromethyl)-5-[(i-propylthio)carbonyl]-4-(cyclobutyl)-6-(trifluoromethyl)-3-pyridinecarboxylate] | 30 |
| COC(=O)c1c(C(F)F)nc(C(F)(F)F)c(N=C(CBr)OC)c1CC(C)C [Compound 16] | 30 |
| COC(=O)c1c(C(F)F)nc(C(F)(F)F)c(C#C[Si](C)(C)C)c1CC(C)C [Compound 19, Methyl 2-(Difluoromethyl)-4-(2-methylpropyl)-6-(trifluoromethyl)-5-[(trimethylsilyl)ethynyl]-3-pyridinedicarboxylate] | 35 |
| CCSC(C)c1c(C(F)(F)F)nc(C(F)F)c(C(=O)OC)c1CC1CC1 (stereo not drawn) [Compound 21] | 40 |
| COC(=O)c1c(C(F)F)nc(C(F)(F)F)c(N=COCC2CO2)c1CC(C)C (stereo not drawn) [Compound 30] | 40 |
| COC(=O)c1c(C(F)F)nc(C(F)(F)F)c(SCSC)c1CC(C)C [Compound 33, Methyl 2-(Difluoromethyl)-4-(2-methylpropyl)-5-(methylthiomethylthio)-6-(trifluoromethyl)-3-pyridinecarboxylate] | 45 |
| COC=C(Br)c1c(C(F)(F)F)nc(C(F)F)c(C(=O)OC)c1CC1CC1 [Compound 35, Methyl 5-(1-Bromo-2-methoxyethenyl)-4-(cyclopropylmethyl)-2-(difluoromethyl)-6-(trifluoromethyl)-3-pyridinecarboxylate] | 45 |
| CCOC(=O)c1c(C(F)(F)F)nc(C(F)(F)F)c(C(=O)OCC)c1CC(C)C [Compound 36, Diethyl 2,6-Bis(trifluoromethyl)-4-(2-methylpropyl)-3,5-pyridinedicarboxylate] | 45 |
| CCOC(=O)c1c(C(F)F)nc(C(F)(F)F)c(C(=O)OCC)c1C1CCCCC1 [Compound 38] | 50 |
| CCOC(=O)c1c(C(F)F)nc(C(F)(F)F)c(C(=O)OCC)c1SC(C)(C)C [Compound 39, Diethyl 2-(Difluoromethyl)-4-(t-butylthio)-6-(trifluoromethyl)-3,5-pyridine-dicarboxylate] | 50 |
| COC(=O)c1c(C(F)F)nc(C(F)(F)F)c(N=C(SC)SC)c1CC(C)C [Compound 42, Methyl 5-{[Bis(methylthio)methylene]amino}-2-(difluoromethyl)-4-(2-methylpropyl)-6-(trifluoromethyl)-3-pyridinecarboxylate] | 50 |
| COC(=O)c1c(C(F)F)nc(C(F)(F)F)c(C(=O)OC)c1CCC(C)C [Compound 49] | 50 |
| COC(=O)c1c(C(F)F)nc(C(F)(F)F)c(C(=NC(C)C)SC)c1CC(C)C [Compound 58, Methyl 2-(difluoromethyl)-5-{[isopropylimino(methylthio)methyl]}-4-(2-methylpropyl)-6-(trifluoromethyl)-3-pyridinecarboxylate] | 55 |
| COC(=O)c1c(C(F)F)nc(C(F)(F)F)c(C2OCCCO2)c1CC(C)C [Compound 59, Methyl 2-(Difluoromethyl)-5-(1,3-dioxan-2-yl)-4-(2-methylpropyl)-6-(trifluoromethyl)-3-pyridinecarboxylate] | 55 |
